US7544666B2, “NAP derivatives” (Industrial Technology Research Institute, priority 2005, dated 2009)

Experiments:
Caco-2 cell monolayer = experiment: Permeation to Caco-2 cell monolayer; assay type: in vitro ADME, human; design: unit not given here; settings: 4-hour incubation, initial concentration 500 μM in upper layer
Description: The permeation of NAP and the NAP derivatives was examined using the Caco-2 cell system. Caco-2 cells (1×10^5 cells) were seeded into the polycarbonate film on the upper layer of a 12-well Transwell and incubated at 37° C. for 18 to 26 days. The TEER of the Caco cell monolayer was measured over 350 Ω×cm^2. NAP and the NAP derivatives in the HBSS were added into the upper layer of the Caco-2 cell-seeded Transwell. After 4-hour incubation, the concentration of NAP and the NAP derivatives in the upper and lower layers was measured and analyzed in comparison with the initial concentration (500 μM) by reverse phase HPLC at 210 nm.

Caco-2 cell = experiment: Stability in the Caco-2 cell system; assay type: in vitro ADME, human; settings: 4-hour incubation in Caco-2 Transwell; relative to initial conc. = 100.00 (500 μM)
Description: (§1) The stability of the NAP derivatives prepared by EXAMPLE 1 was measured with the system of human colon cancer cell, Caco-2 cell. Caco-2 cells (1×10^5 cells) were first seeded into a polycarbonate film on the upper layer of a 12-well Transwell and incubated for 18 to 26 days at 37° C. The TEER of the Caco-2 cell monolayer was measured over 350 Ω×cm^2. The stability of the NAP derivatives in the Hanks' balanced salt solutions (HBSS) was measured by the concentration changes of NAP and the NAP derivatives incubated in the HBSS at 37° C. for 4 hours. The stability of the NAP derivatives in the Caco-2 cell system was measured by the procedure described below. NAP and the NAP derivatives in the HBSS were added into the upper layer of the Caco-2 cell-seeded Transwell. After 4-hour incubation, the concentration of NAP and the NAP derivatives in the upper and lower layers was measured and analyzed in comparison with the initial concentration (500 μM) by reverse HPLC at 210 nm.

[1] = Stability in Hanks' balanced salt solution (HBSS); assay type: physicochemical; settings: 37° C., relative to initial conc. in HBSS = 100.00
Description: as §1

[2] = Pharmacokinetics after single subcutaneous dose in rats; assay type: in vivo; settings: rat, 1 mg/kg subcutaneous
Description: A single dosage of NAP and the NAP derivative of BMEC-NAP0706 were subcutaneously administered to rats respectively, and blood samples were obtained at different time intervals. The blood samples were subjected to LC-MS/MS analysis to measure the concentration of NAP and the NAP derivative. A time-plasma concentration relationship was established and pharmacokinetic parameters were calculated. The procedures are described below.
Long Evans rats with body weight between 220 to 240 g were obtained from the National Laboratory Animal Center, Taiwan and caged in the laboratory animal housing in the Industrial Technology Research Institute, Taiwan. The Breeding procedure follows the “Guide for the Care and Use of Laboratory Animals” established by the Chinese Society of Laboratory Animal Sciences. The rats were kept on an alternating 12-hour light and 12-hour dark schedule with sufficient feed and water until they reached the body weight between 280 to 300 g.
Each rat was weighed before the pharmacokinetic examination to estimate its own dosage. The tested drug dissolved in PBS was formulated to achieve the amount of one dosage between 0.28 to 0.32 mL. Each rat was subcutaneously administered with 1 mg/kg of the tested drug. 0.3 mL of blood samples were collected from the saphenous vein in medial thigh of the rat before and 0.25-, 0.5-, 0.75-, 1-, 2-, 4-, 24-hour after administration. Whole blood was centrifuged under 3500 rpm for 10 min and supernatant (serum) was moved to a clean 1.5 mL eppendorf and stored at −80° C.
Sample pretreatment was as follows: The frozen serum was thawed in an ice bath. One hundred μL of the serum was moved to a clean 1.5 mL eppendorf and 10 μL of internal standard material was added. The mixture was added with 200 μL ACN and mixed again. The sample was centrifuged under 14000 rpm at 4° C. for 10 min, and the supernatant was moved to the other clean eppendorf and dried in a vacuum system at 60° C. for 30 min. The dried sample was dissolved in 900 μL ddH2O. The sample was added to a solid phase extraction column previously activated with methanol and ddH2O. After the sample passed through, the extraction column was washed with ddH2O alone and then ddH2O containing 5% ACN and 0.1% TFA. The sample was dissolved from the extraction column with ACN containing 0.1% TFA and dried under a vacuum system at 60° C. for 1 hour. The dried sample was redissolved with 100 μL of ddH2O containing 50% ACN. The sample was analyzed with HPLC-MS/MS system.
The sample analysis was as described below. 20 μL of the sample was poured into the HPLC-MS/MS system. The solvent system was applied in gradient partitioning: 90% A (H2O/ACN=98/2, 0.1% F.A.) and 10% B (H2O/ACN=20/80, 0.1% F.A.) at 0-3 min; 10% A and 90% B at 3-6.5 min; 90% A and 10% B again at 6.5-15 min. The flow rate was 0.2 mL/min. The column was ZORBAX C18, 5 μm, 2.1×50 mm (Agilent) and the detector was ABI 4000 Q Trap. Each sample was analyzed for 15 min. The results were compared with the standard calibration curve to estimate the concentration of each sample. All data was statistically analyzed with Excel or WinNonlin.

Molecule	Conc. at the lover layer (Caco-2 cell monolayer)	Conc. after 4-hour in Caco-2 cells (Caco-2 cell)	Conc. after 4-hour in HBSS [1]	further results
CCCCOC(=O)N[C@@H](CC(N)=O)C(=O)N[C@@H](C)C(=O)N1CCC[C@H]1C(=O)N[C@H](C(=O)N[C@@H](CO)C(=O)N[C@H](C(=O)N1CCC[C@H]1C(=O)N[C@@H](CCC(N)=O)C(N)=O)[C@@H](C)CC)C(C)C [BMEC-NAP0503, nBu-OCO-NAPVSIPQ-NH2]	0.60	85.89	99.77	
CCCCCCOC(=O)N[C@@H](CC(N)=O)C(=O)N[C@@H](C)C(=O)N1CCC[C@H]1C(=O)N[C@H](C(=O)N[C@@H](CO)C(=O)N[C@H](C(=O)N1CCC[C@H]1C(=O)N[C@@H](CCC(N)=O)C(N)=O)[C@@H](C)CC)C(C)C [BMEC-NAP0504, nHex-OCO-NAPVSIPQ-NH2]	0.49	82.71	100.22	
CCCCCCCCOC(=O)N[C@@H](CC(N)=O)C(=O)N[C@@H](C)C(=O)N1CCC[C@H]1C(=O)N[C@H](C(=O)N[C@@H](CO)C(=O)N[C@H](C(=O)N1CCC[C@H]1C(=O)N[C@@H](CCC(N)=O)C(N)=O)[C@@H](C)CC)C(C)C [BMEC-NAP0505, nOct-OCO-NAPVSIPQ-NH2]	0.65	76.83	93.41	
CC[C@H](C)[C@H](NC(=O)[C@H](CO)NC(=O)[C@@H](NC(=O)[C@@H]1CCCN1C(=O)[C@H](C)NC(=O)[C@H](CC(N)=O)NC(=O)c1cccc2ccccc12)C(C)C)C(=O)N1CCC[C@H]1C(=O)N[C@@H](CCC(N)=O)C(=O)O [BMEC-NAP0702, α-Naphthoyl-NAPVSIPQ-OH]	0.27	61.61	96.55	
Adipyl-NAPVSIPQ-NH2 [BMEC-NAP0202]	0.82	95.59	98.38	
H-NAPVSIPN-OH [BMEC-NAP0603, H-NAPVSIPN-OH]	0.04	29.17	101.90	

Further lines, with some results ahead:

Conc. at the lover layer (Caco-2 cell monolayer)	Conc. after 4-hour in Caco-2 cells (Caco-2 cell)	Conc. after 4-hour in HBSS [1]	Molecule	further results
0.24	73.69	99.88	CC[C@H](C)[C@H](NC(=O)[C@H](CO)NC(=O)[C@@H](NC(=O)[C@@H]1CCCN1C(=O)[C@H](C)NC(=O)[C@H](CC(N)=O)NC(=O)c1cccs1)C(C)C)C(=O)N1CCC[C@H]1C(=O)N[C@@H](CCC(N)=O)C(=O)O [BMEC-NAP0704, 2-Thiophenecarbonyl-NAPVSIPQ-OH]	
0.21	72.93	100.00	CC[C@H](C)[C@H](NC(=O)[C@H](CO)NC(=O)[C@@H](NC(=O)[C@@H]1CCCN1C(=O)[C@H](C)NC(=O)[C@H](CC(N)=O)NC(=O)OCc1ccccc1)C(C)C)C(=O)N1CCC[C@H]1C(=O)N[C@@H](CCC(N)=O)C(=O)O [BMEC-NAP0705, Cbz-NAPVSIPQ-OH]	
0.57	67.14	99.78	CC[C@H](C)[C@H](NC(=O)[C@H](CO)NC(=O)[C@@H](NC(=O)[C@@H]1CCCN1C(=O)[C@H](C)NC(=O)[C@H](CC(N)=O)NC(=O)OCC1c2ccccc2-c2ccccc21)C(C)C)C(=O)N1CCC[C@H]1C(=O)N[C@@H](CCC(N)=O)C(=O)O [BMEC-NAP0706, Fmoc-NAPVSIPQ-OH]	AUC ([2]; in vivo, sc): 104 ng·h/mL; Cmax ([2]; in vivo, sc): 101 ng/mL; Tmax ([2]; in vivo, sc): 45 min; half-life ([2]; in vivo, sc, read-out: T½ (converted)): 54.6 min; AUC relative to NAP [2]: twice that of NAP; TNAP-max [2]: 0.25 h; maximum plasma concentration relative to NAP [2]: twice that of NAP; time required to reach the highest concentration [2]: 0.25 h
0.33	92.58	99.88	CC[C@H](C)[C@H](NC(=O)[C@H](CO)NC(=O)[C@@H](NC(=O)[C@@H]1CCCN1C(=O)[C@H](C)NC(=O)[C@H](CC(N)=O)NC(=O)c1ccccc1)C(C)C)C(=O)N1CCC[C@H]1C(=O)N[C@@H](CCC(N)=O)C(N)=O [BMEC-NAP0801, Benzoyl-NAPVSIPQ-NH2]	
0.34	88.68	100.00	CC[C@H](C)[C@H](NC(=O)[C@H](CO)NC(=O)[C@@H](NC(=O)[C@@H]1CCCN1C(=O)[C@H](C)NC(=O)[C@H](CC(N)=O)NC(=O)c1cccc2ccccc12)C(C)C)C(=O)N1CCC[C@H]1C(=O)N[C@@H](CCC(N)=O)C(N)=O [BMEC-NAP0802, α-Naphthoyl-NAPVSIPQ-NH2]	
0.31	92.09	98.62	CC[C@H](C)[C@H](NC(=O)[C@H](CO)NC(=O)[C@@H](NC(=O)[C@@H]1CCCN1C(=O)[C@H](C)NC(=O)[C@H](CC(N)=O)NC(=O)c1cccs1)C(C)C)C(=O)N1CCC[C@H]1C(=O)N[C@@H](CCC(N)=O)C(N)=O [BMEC-NAP0804, 2-Thiophenecarbonyl-NAPVSIPQ-NH2]	
0.27	89.54	98.58	CC[C@H](C)[C@H](NC(=O)[C@H](CO)NC(=O)[C@@H](NC(=O)[C@@H]1CCCN1C(=O)[C@H](C)NC(=O)[C@H](CC(N)=O)NC(=O)OCc1ccccc1)C(C)C)C(=O)N1CCC[C@H]1C(=O)N[C@@H](CCC(N)=O)C(N)=O [BMEC-NAP0805, Cbz-NAPVSIPQ-NH2]	
